Legend:
[1] = target: T1, AaegOR8 (Aedes aegypti (R)-1-octen-3-ol receptor OR8) (Aedes aegypti, UniProt Q16MN0); experiment: two-electrode voltage clamp, Xenopus oocytes; baseline current shift under […] perfusion versus water-injected oocytes; type: cell-based
T1 construct: gene GPRor8; with AaegOrco
T1 sequence (Q16MN0 1-422): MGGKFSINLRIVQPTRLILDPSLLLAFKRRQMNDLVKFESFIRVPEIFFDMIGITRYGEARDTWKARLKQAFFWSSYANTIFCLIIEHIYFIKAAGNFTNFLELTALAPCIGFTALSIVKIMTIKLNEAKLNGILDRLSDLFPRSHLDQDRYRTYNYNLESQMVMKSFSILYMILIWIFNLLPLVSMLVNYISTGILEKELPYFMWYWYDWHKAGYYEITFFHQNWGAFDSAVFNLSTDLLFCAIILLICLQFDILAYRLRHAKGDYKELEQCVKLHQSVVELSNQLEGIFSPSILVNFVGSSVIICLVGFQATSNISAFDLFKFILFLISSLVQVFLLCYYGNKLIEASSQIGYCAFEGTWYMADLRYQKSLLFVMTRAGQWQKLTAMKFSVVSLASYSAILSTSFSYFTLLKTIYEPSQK
T1 sequence (Q178U6 1-478 partner): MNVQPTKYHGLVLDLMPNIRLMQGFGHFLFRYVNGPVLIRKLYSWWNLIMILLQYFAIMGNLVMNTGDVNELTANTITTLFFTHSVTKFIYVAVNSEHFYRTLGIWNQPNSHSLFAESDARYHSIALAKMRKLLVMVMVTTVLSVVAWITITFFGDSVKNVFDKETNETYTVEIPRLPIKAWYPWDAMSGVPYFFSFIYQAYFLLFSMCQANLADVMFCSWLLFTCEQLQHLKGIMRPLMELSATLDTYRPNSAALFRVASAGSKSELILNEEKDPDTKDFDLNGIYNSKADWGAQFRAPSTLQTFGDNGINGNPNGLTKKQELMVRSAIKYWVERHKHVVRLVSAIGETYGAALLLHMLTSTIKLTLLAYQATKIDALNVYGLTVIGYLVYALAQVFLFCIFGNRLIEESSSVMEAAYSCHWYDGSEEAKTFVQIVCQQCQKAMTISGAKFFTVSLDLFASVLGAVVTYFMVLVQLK

[2] = target: T1, AaegOR8 (Aedes aegypti (R)-1-octen-3-ol receptor OR8); experiment: two-electrode voltage clamp, Xenopus oocytes expressing AaegOR8-Orco; about […] inhibition at […]; not active on Orco alone; type: cell-based; details: read-out: % reduction at 10^-3 M

SMILES: CCCCN(CCC(=O)OCC)C(C)=O [IR3535]
- two-electrode voltage clamp, Xenopus oocytes; baseline current shift under 0.01 [1]: Indole and insect repellents (DEET, IR3535) increased the baseline current state of AaegOR8-Orco-injected oocytes

SMILES: CCN(CC)C(=O)c1cccc(C)c1 [DEET]
- two-electrode voltage clamp, Xenopus oocytes; baseline current shift under 0.01 [1]: Indole and insect repellents (DEET, IR3535) increased the baseline current state of AaegOR8-Orco-injected oocytes

SMILES: c1ccc2[nH]ccc2c1 [indole]
- inhibition at 1000 µM [2]: ~30%

Source: publication PMC9652956, “The ovipositor cue indole inhibits animal host attraction in Aedes aegypti (Diptera: Culicidae) mosquitoes” (Parasites & Vectors, 2022)
